Here are results for one molecule from US20130171161A1, “METHOD AND COMPOSITION FOR THE TREATMENT OF DISEASES CAUSED BY OR ASSOCIATED WITH HIV” (priority 2010, published 2013).

Experiment [1] concerns HIV-1 LAI. The experiment can be described thus: Inhibition of HIV replication (p24 level) in human peripheral blood mononuclear cells infected in vitro, Example 1. The class given is cell-based. To be noted: Human immunodeficiency virus 1, PBMC; 1000 nM added 24 hours before infection; day 7; read-out: inhibition of HIV replication (p24 in supernatant). Here is the method: The assessment of antiretroviral activity of ultra low-dose of rabbit polyclonal antibodies to CD4 receptor (a mixture of homoeopathic dilutions C12+C30+C50) (ULD Ab CD4)), was carried out using human peripheral blood mononuclear cells infected with the strain HIV-1 LAI in vitro.
Human peripheral blood mononuclear cells were isolated from blood of a seronegative healthy donor by centrifugation on a Ficoll-Hypaque density gradient. The cells were stimulated for 3 days with 1 μg/mL of phytohemagglutinin P and 5 IU/mL of recombinant human interleukin-2.
In order to assess antiretroviral activity the products were placed in a well containing 100 μL of activated mononuclears 24 hours before or 15 min after cell infection with the strain HIV-1-LAI at the dose of 100 TCID50 (50 μL inoculum of the strain HIV-1-LAI). Before adding to a well, ULD Ab CD4 (12.5 μL) or reference azidotimidine (1000 nM) were mixed with RPMI1640 medium (DIFCO) to achieve a final probe volume of 50 μL
The supernatant fluids were collected on day 7 after infection of cells. The products' activity was measured by the inhibition of HIV replication which was assessed by the level of core nucleocapsid protein p24 in the supernatant fluid from human peripheral blood mononuclear cells using Retrotek Elisa kit.

The test system of experiment [2] is HIV-1 LAI. Put plainly: Inhibition of HIV-reverse transcriptase activity in supernatant of infected human peripheral blood mononuclear cells, Example 2. The format is cell-based. To be noted: 8 nM; added 15-30 minutes after infection. As to the method: The assessment of antiretroviral activity of ultra low-dose rabbit polyclonal antibodies to CD4 (a mixture of homoeopathic dilutions C12+C30+C50) (hereinafter referred to as “ultra low-dose antibodies to CD4) was carried out using human peripheral blood mononuclear cells infected with the strain HIV-1 LAI in vitro. Azidothymidine (Sigma—AZ169-100 mg, lot 107K1578) was used as a comparator product.
Human peripheral blood mononuclear cells were isolated from blood of a seronegative healthy donor by centrifugation on a Ficoll-Hypaque density gradient. The cells were stimulated for 3 days with 1 μg/mL of phytohemagglutinin P and 5 IU/mL of recombinant human interleukin-2 in RPMI1640 (DIFCO) medium supplemented with 10% fetal calf serum (the complement was removed by heating for 45 minutes at 56° C.), 1% antibiotic solution (PSN Gibco containing 50 μg/mL of penicillin, 50 μg/mL of streptomycin and 100 μg/mL of neomycin). […]
The products' efficiency was established by the inhibition of HIV replication which was assessed by HIV-reverse transcriptase activity in the supernatant fluid from human peripheral blood mononuclear cells using the HIV RT RetroSys kit made by INNOVAGEN (Lot 10-059C). […]

For the next experiment, the system named is HIV-strain-1-LAI. Put plainly: Inhibition of HIV replication (p24 content) in infected mononuclear cells of human blood, Example 3. The class given is cell-based, HIV-1. To be noted: 1000 nM, day 7, read-out: inhibition of HIV reaction (p24 in supernatant).

SMILES strings stand for the structures. Where two headings read alike, the source gives them in different places.

Description for HIV-strain-1-LAI: The experimental study involved the affine purified rabbit polyclonal antibodies to the human IFN-gamma. The affine purified rabbit polyclonal antibodies to the human gamma interferon were used for development of the (potentiated) antibodies to the gamma interferon in a very-low-dose in the form of serial dilutions C12+C30+C50, obtained in accordance with a homeopathic technology (hereinafter referred to as Ab to IFN-γ in VLD).
Antiviral activity of the composition under review Ab to IFN-γ in VLD and azidothymidine (preparation, based on an active substance of Zidovudine) was studied within the context of mononuclear cells of the human blood, infected in vitro with the HIV-strain-1-LAI. The efficiency of replicating inhibition of HIV was assessed according to the content of a main nucleocapsid protein p24 HIV in the supernatant fluid of the mononuclear cells of the human peripheral blood. […]
Supernatant fluid of the cell culture was collected on the seventh (7) day subsequent to the contamination. The efficiency of the preparations was assessed according to the inhibition of HIV reaction, in its turn assessed in accordance with the content of a main nucleocapsid protein p24 HIV in the supernatant cells by method of IFA, immunofluorescent assay (Retrotek Elisa kit).

Consider `Cc1cn([C@H]2C[C@H](N=[N+]=[N-])[C@@H](CO)O2)c(=O)[nH]c1=O` [Azidothymidine], for which the inhibition at 1 µM with HIV-1 LAI [1] was found to be 99%; in the experiment on HIV-strain-1-LAI (Human immunodeficiency virus 1, 168 h, introduced 24 prior to contamination) it was 99%; with HIV-strain-1-LAI (Human immunodeficiency virus 1, introduced 15 minutes after contamination), 99 ± 1%. Further, the “Inhibition of HIV-reverse transcriptase activity (% of control) Day 7” value in the experiment with HIV-1 LAI [2] is on record as 58 ± 7 % of control.
